Results from patent US20110165092A1, “COSMETIC AND/OR DERMATOLOGICAL COMPOSITION” (Universite de la Mediterranee, Aix-Marseille II, priority 2008, published 2011).

What was measured:
[1] = system: Zmpste24−/− cells; experiment: Nuclear morphology of Zmpste24−/− mice cells in culture; assay type: cell-based, mouse; conditions: pravastatin 1 μM and zoledronate 1 μM, alone or in combination, FIG. 12a
From the text: (§1) The dermal fibroblasts of a control subject (GM00038) and of patients afflicted with progeria and carriers of the G608G mutation (AG11498 and AG01972) were obtained from the Coriell Cell Repository. The HeLa cells came from the American Type Culture Collection. The cells were cultivated in DMEM (Gibco) supplemented with 10% FBS (Gibco) and 1% antibiotic-antimycotic (Gibco). The fibroblasts came from 12-day old mice tails (Varela et al., 2005). The concentration and the length of the treatment with the statin and the aminobiphosphonate are indicated in the legend to the figures. During the combined treatment with statin+aminobiphosphonate in the presence of farnesol and/or geranylgeraniol, 1 mM of pravastatin and 1 mM of zoledronate were added to the culture medium with increasing concentrations of farnesol and/or geranylgeraniol. The percentage of abnormal nuclei was measured 48 hours after the start of the treatment.
(§2) Quantification of the effect of pravastatin (1 μM) and zoledronate (1 μM) combined or uncombined on the nuclear morphology of Zmpste24^−/− mice (a) and control mice (b) cells in culture, in the presence of farnesol, geranylgeraniol or both molecules.

[2] = system: progeria patient cells; experiment: Immunocytochemistry, nuclear morphology of progeria patient cells; assay type: cell-based, human; conditions: abnormal nuclei 48 hours after start, FIG. 10d
From the text: as §1, with “During the combined treatment with statin+aminobiphosphonate in the presence of farnesol and/or geranylgeraniol, 1 mM of pravastatin and 1 mM of zoledronate were added to the culture medium with increasing concentrations of farnesol and/or geranylgeraniol.” left out, “treatment. […]” for “treatment.”
The dilution of primary antibodies was 1:100 for the polyclonal goat anti-prelamin A antibody Sc-6214, Santa Cruz Biotechnologies), 1:40 for the anti-lamin A/C antibody (4A7 supplied by G. Morris), 1:200 for the anti-calreticulin rabbit antibody (Stressgen) and 1:100 for the anti-lamin B1 antibody (Abcam). […] Digital images were recorded with a Leica DMR microscope equipped with a CoolSnap camera or with a Leica TCS SP5 confocal microscope. […] More than 100 nuclei were analysed in control fibroblasts for each of the treatments. The number of cell nuclei of patients afflicted with progeria which was analysed was 250 (passage 8), 198 (passage 13) and 150 (passage 20). […]

[3] = system: control fibroblasts; experiment: Nuclear morphology of control mice cells in culture; assay type: cell-based, mouse; conditions: FIG. 12b
From the text: as §1, §2

[4] = system: healthy cells; experiment: Immunohistochemistry dose- and time-response on healthy control cells; assay type: cell-based, human; conditions: 100 μM pravastatin for 12 hours, 20 μM zoledronate for 6 hours, FIG. 3; for rate of prelamin A produced in treated healthy cells: in combination or singly
Experimental: Labtech style culture wells (Nunc, Ref. 177399) are seeded, at the rate of 5×10^4 cells per well.
The complete culture medium is supplemented with the treatment or treatments (statin, NBP, both), and the cells are cultivated for the ad hoc time.
The cells are fixed in a 4% paraformaldehyde solution (in PBS) for 10 minutes at ambient temperature.
The primary antibody is diluted to 1/100th in 50 μl of incubating solution and placed in contact with the cells for 1 hour at ambient temperature in a moisture chamber.
The primary antibodies used are of 2 types: • Anti-lamin A/C mouse (N-terminal side), clone 4A7, donation from G. Morris (Oswestry, UK) • Anti-prelamin A goat (15 aa C-terminal end), product SC6214, Santa Cruz Biotechnology, Inc. • 3 rinsings of 15 min each are carried out in 50 μl of 1× PBS.
The cells are immersed in a drop of VectaShield (Vector), covered with a cover glass and observed under a fluorescence microscope (Leica DMR, Leica Microsystems), equipped with a coolSNAP camera system (Princeton).
Dose-response and time-response curves made it possible to determine maximum effectiveness by measuring 2 parameters on healthy control cells, on the one hand, and then on HGPS patient cells.

[5] = system: Zmpste24−/− mice; experiment: Progeroid phenotype of Zmpste24−/− mice (Example 9); assay type: in vivo, mouse; conditions: daily treatment, FIG. 15
Experimental: Pravastatin (100 mg/kg/day) and zoledronate (100 mg/kg/day) diluted in PBS were administered to the mice every day.
The difference between the various groups of treated or untreated mice and cells was analysed using the t-test. The calculations were made with the Microsoft Excel program. The data was expressed as a mean±standard error of the mean (SEM).

Row | Compound | influence on the effect of the pravastatin+zoledronate treatment on nuclear morphology [1] | influence on the effect of the pravastatin+zoledronate treatment on nuclear morphology [2] | effect on nuclear morphology of control fibroblasts [3] | rate of prelamin A produced in treated healthy cells [4] | lifespan of the Zmpste24−/− mice, each drug separately [5] | rate of deformed nuclei (a sign of toxicity in healthy cells) [4]
1 | CC(C)=CCCC(C)=CCCC(C)=CCO [farnesol] | abolish the effect of the pravastatin+zoledronate treatment on the nuclear morphology | abolishes the effect of the pravastatin+zoledronate treatment | Neither farnesol nor geranylgeraniol produces any effect on control fibroblasts | – | – | –
2 | O=P(O)(O)C(O)(Cn1ccnc1)P(=O)(O)O [zoledronate, (1-hydroxy-2-imidazol-1-yl-1-phosphono-ethyl)phosphonic acid] | – | – | – | 15% | does not improve the lifespan | –
3 | CC(C)=CCC/C(C)=C/CC/C(C)=C/CC/C(C)=C/CO [geranylgeraniol] | abolish the effect of the pravastatin+zoledronate treatment on the nuclear morphology | also blocks the effect of the treatment | Neither farnesol nor geranylgeraniol produces any effect on control fibroblasts | – | – | –
4 | CC[C@H](C)C(=O)O[C@H]1C[C@H](O)C=C2C=C[C@H](C)[C@H](CC[C@@H](O)C[C@@H](O)CC(=O)O)[C@H]21 [pravastatin] | – | – | – | 25% | – | approximately 12%
